In patent EP0501375A1 (priority 1991, dated 1992):
*1 amine or outer side, *2 acyl side, *3 side chain or, on linkers, in order; H or OH if unused. Where a SMILES comes first, the peptide text is derived from it. CO = O=C([*:1])[*:2]

Experiments:
alkaline protease K-16 [1] = molecular target: T1, alkaline protease K-16 (Shouchella clausii, UniProt Q99405); assay: Effects of metal ions on protease activity; type: biochemical, Bacillus sp. KSM-K16; conditions: metal salt 1 mM; for Residual Activity: pH 9.5, 30°C for 20 minutes, relative to no metal salt; for effect on activity of the alkaline protease K-16 (in words): 30°C for 20 minutes
T1 sequence (Q99405 112-380): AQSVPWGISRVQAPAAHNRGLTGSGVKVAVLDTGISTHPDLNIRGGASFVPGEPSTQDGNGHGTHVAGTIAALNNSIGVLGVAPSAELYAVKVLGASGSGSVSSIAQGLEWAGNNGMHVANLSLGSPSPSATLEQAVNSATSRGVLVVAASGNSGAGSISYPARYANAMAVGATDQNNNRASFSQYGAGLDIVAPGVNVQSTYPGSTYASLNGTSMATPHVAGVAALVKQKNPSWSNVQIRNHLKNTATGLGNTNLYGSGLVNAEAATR
Protocol: A 1 ml portion of 50 mM boric acid-NaOH buffer (pH 10) containing 1% casein was mixed with 0.1 ml of enzyme solution, and the mixture was incubated at 40°C for 10 minutes. The reaction was stopped by adding 2 ml of a solution containing 0.123 M trichloroacetic acid, 0.246 M sodium acetate and 0.369 M acetic acid. After allowing to stand at 30°C for 20 minutes, the resulting mixture was filtered through a filter paper (manufactured by Whatman; No. 2), and the filtrate was checked for its contents of proteolytic products in accordance with the modified Folin-Lowry method. One unit of activity (1 P.U.) was defined as the amount of enzyme which produces 1 mmole of tyrosine per minute.
Effects of various metal ions on the activity of the alkaline protease K-16 were examined. A 20 mM boric acid-NaOH buffer (pH 9.5) solution containing 1 mM of a metal salt was mixed with 3.9 x 10⁻³ P.U. of the alkaline protease K-16, and the mixture was maintained at 30°C for 20 minutes. Thereafter, the thus treated mixture was diluted with 50 mM boric acid-NaOH buffer (pH 10.0) by a factor of 5 to measure residual activity which was then calculated as relative value based on the activity measured in the same manner in the absence of metal salts. […] Also, as is evident from the results described in the foregoing items (5) and (6), thermal stability of this enzyme is improved in the presence of Ca²⁺ TABLE 3

alkaline protease K-16 [2] = molecular target: T1, alkaline protease K-16; assay: biochemical; type: biochemical, Bacillus sp. KSM-K16

Row | Structure (SMILES) | Residual Activity (alkaline protease K-16 [1]) [%] | other results
1 | O=[N+]([O-])[O-].[Ag+] [AgNO₃] | 86 | 
2 | CC(C)[C@H](NC(=O)[C@H](CCCNC(=N)N)NC(=O)N[C@@H](Cc1ccccc1)C(=O)O)C(=O)N[C@H](C=O)CCCNC(=N)N [Antipain] ({Phe-CO}-Arg-Val-Arg-aldehyde) |  | Residual Activity (alkaline protease K-16 [2]; pH 7): 108%
3 | [Ca+2].[Cl-].[Cl-] [CaCl₂] | 103 | 
4 | CC(C)C[C@H](NC(=O)[C@@H](NC(=O)N[C@@H](Cc1ccccc1)C(=O)O)[C@@H]1CCN=C(N)N1)C(=O)N[C@H](C=O)Cc1ccccc1 [Chymostatin] |  | Residual Activity (alkaline protease K-16 [2]; pH 7): 34%; effect on activity of the alkaline protease K-16 (in words) (alkaline protease K-16 [2]; pH 7): inhibited
5 | [Cl-].[Cl-].[Co+2] [CoCl₂] | 103 | 
6 | O=S(=O)([O-])[O-].[Cu+2] [CuSO₄] | 73 | effect on activity of the alkaline protease K-16 (in words) (alkaline protease K-16 [1]): inhibited
7 | O=C(O)CN(CCN(CC(=O)O)CC(=O)O)CC(=O)O [EDTA] |  | remaining activity at 5000 µM (alkaline protease K-16 [2]; pH 7, read-out: Residual Activity): 107%
8 | [Cl][Hg][Cl] [HgCl₂] | 46 | effect on activity of the alkaline protease K-16 (in words) (alkaline protease K-16 [1]): inhibited
9 | [Cl][Ni][Cl] [NiCl₂] | 103 | 
10 | [Cl][Pb][Cl] [PbCl₂] | 100 | 
11 | [Cl-].[Cl-].[Zn+2] [ZnCl₂] | 106 | 
